Values belong to the compound of their own block, whether it stands above or below them. Active and inactive are the calls of the source.
Columns and labels:
BJ [1] = test: BJ-TERT fibroblast viability loss – cell-based, RAS-independent, luminescence, dose response (AID 1933); format: functional; conditions: Homo sapiens
BJ [2] = test: cells; format: functional, cell-based; conditions: Homo sapiens
BJ [3] = test: BJ-TERT-LT-ST fibroblast viability loss – cell-based, RAS-independent, luminescence, dose response (AID 1935); format: functional; conditions: Homo sapiens;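 further: BJ fibroblasts immortalized with TERT plus LT and ST oncogenes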
[4] = DRD fibroblast viability loss – cell-based, non-viral oncogenic, luminescence, dose response (AID 1934); format: functional; conditions: Homo sapiens
[5] = HEK-293T viability loss after treatment – luminescence, T-cell screen hits, cytotoxicity control for TCR NF-kB inhibitor project, dose response (AID 489026); format: functional, cell-based;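 further: cells exposed to compound about 14 hours before the viability readout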
INS1 = test: INS-1E survival protection against cytokine death – cell-based, luminescence, retest, dose response (AID 449756); format: functional; conditions: Rattus norvegicus;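 further: cell death triggered by IL-1 beta plus TNF-alpha plus IFN-gamma mixture; protective hits raise ATP signal compared with cytokine alone wells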
[6] = reduction of Shn3 3'UTR-driven luciferase in osteoblasts – cell-based, Clone20 osteoblasts, firefly luciferase, cherry-picked, dose response (AID 624132); format: functional;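 further: firefly luciferase luminescence from reporter carrying the Shn3 3'UTR in osteoblasts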
[7] = loss of viability in HepG2 cells – cell-based, CellTiter-Glo, cherry-picked, cytotoxicity control for Shn3 inhibitor project, dose response (AID 624134); format: functional
[8] = non-specific 3'UTR reporter inhibition in Clone20-Shn3RL – cell-based, Renilla luciferase, cherry-picked, counter-screen for Shn3 inhibitor project, dose response (AID 624133); format: functional
Galanin receptor type 3 = target: T1, Galanin receptor type 3 (Homo sapiens, UniProt O60755); test: Fluorescence-based cell-based primary high throughput dose response assay to identify antagonists of the Galanin Receptor 3 (GalR3).; format: functional
T1 sequence (O60755 whole entry): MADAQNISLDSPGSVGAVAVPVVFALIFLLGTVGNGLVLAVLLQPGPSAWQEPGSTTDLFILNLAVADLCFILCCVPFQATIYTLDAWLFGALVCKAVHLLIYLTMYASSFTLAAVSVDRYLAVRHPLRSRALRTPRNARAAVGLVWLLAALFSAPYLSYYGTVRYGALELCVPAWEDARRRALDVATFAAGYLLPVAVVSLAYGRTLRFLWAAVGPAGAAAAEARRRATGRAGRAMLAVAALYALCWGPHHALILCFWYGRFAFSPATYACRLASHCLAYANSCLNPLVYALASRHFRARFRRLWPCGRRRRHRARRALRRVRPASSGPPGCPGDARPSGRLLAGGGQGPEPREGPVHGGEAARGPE

cells [9] = format: functional, cell-based; conditions: HEK-CNG
[10] = target: T2, DNA repair and recombination protein RAD54-like (Homo sapiens, UniProt Q92698); test: RAD54 Holliday junction migration blockers – biochemical, fluorescence, cherry-picked samples, dose series, confirmation (AID 651657); format: functional
T2 sequence (Q92698 whole entry): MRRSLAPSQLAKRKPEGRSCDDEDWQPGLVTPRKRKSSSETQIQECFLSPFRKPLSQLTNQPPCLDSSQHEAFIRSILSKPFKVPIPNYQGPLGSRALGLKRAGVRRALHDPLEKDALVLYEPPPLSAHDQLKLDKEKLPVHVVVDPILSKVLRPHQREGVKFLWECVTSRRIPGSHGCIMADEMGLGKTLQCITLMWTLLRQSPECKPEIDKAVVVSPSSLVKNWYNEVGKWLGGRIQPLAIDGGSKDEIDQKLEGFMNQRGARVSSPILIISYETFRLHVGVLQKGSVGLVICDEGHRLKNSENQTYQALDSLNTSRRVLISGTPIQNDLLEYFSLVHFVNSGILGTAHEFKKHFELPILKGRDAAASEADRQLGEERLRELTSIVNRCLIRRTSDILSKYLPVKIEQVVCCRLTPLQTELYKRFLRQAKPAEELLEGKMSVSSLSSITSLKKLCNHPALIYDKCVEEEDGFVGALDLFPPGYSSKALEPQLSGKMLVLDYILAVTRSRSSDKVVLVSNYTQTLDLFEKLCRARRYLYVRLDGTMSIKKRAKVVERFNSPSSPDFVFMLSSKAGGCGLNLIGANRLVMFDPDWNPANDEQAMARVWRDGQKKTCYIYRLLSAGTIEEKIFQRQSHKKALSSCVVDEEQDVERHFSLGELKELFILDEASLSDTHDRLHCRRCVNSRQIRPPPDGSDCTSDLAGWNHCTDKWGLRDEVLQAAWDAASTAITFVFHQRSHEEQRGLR

[11] = Trypanosoma cruzi growth suppression in host cells – NIH3T3 host cells, beta-gal luminescence, confirmation (AID 2044); format: functional, cell-based;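 further: intracellular parasites grown in NIH/3T3 mouse fibroblasts as host cells; luminescent beta-galactosidase reporter signal from transgenic T. cruzi replicating inside host cells; inhibitors lower the luminescence signal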
[12] = NIH3T3 cell viability loss – ATP luminescence, mouse fibroblasts, counter-screen, dose response (AID 2010); format: functional, cell-based;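 further: cells exposed to compound for about 90 hours before reading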
[13] = target: Photoreceptor-specific nuclear receptor (Homo sapiens, UniProt Q9Y5X4); format: functional, cell-based;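 further: CHO-S cells with Gal4-NCOR and VP16-NR2E3 two-hybrid luciferase reporter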
Chain of Photoreceptor-specific nuclear receptor (Q9Y5X4 whole entry, the tested form may be a part): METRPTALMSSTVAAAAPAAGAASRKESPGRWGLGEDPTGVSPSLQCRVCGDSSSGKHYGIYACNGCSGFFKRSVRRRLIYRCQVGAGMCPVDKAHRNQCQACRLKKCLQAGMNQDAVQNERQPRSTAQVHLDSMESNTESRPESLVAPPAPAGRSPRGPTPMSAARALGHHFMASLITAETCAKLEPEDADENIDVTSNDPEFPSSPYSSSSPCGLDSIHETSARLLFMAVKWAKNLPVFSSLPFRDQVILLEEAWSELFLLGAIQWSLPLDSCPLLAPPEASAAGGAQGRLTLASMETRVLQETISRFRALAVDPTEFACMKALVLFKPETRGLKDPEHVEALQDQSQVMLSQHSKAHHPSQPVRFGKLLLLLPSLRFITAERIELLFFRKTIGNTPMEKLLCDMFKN

[14] = viability of uninfected HEp-2 cells – cell-based, HTS, cytotoxicity control for RSV inhibitor project, dose response (AID 2410); format: functional; conditions: human respiratory syncytial virus
[15] = target: T3, Low molecular weight phosphotyrosine protein phosphatase (Homo sapiens, UniProt P24666); format: functional; conditions: read-out: IC50_Mean
T3 sequence (P24666 whole entry): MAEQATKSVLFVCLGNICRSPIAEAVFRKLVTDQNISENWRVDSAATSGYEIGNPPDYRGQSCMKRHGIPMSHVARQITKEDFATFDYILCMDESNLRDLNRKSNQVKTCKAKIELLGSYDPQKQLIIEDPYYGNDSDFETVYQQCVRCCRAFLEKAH

[16] = target: T3, Low molecular weight phosphotyrosine protein phosphatase; format: functional; conditions: read-out: IC50_Mean; remark: listed apart in the source
cells [17] = test: cells
Aminopeptidase N = target: T4, Aminopeptidase N (Plasmodium falciparum FcB1/Columbia, UniProt O96935); test: malaria alanyl aminopeptidase activity blockers – biochemical, fluorogenic H-Leu-NHMec substrate, 1536-well (AID 1445); parameters: species or system Plasmodium falciparum 3D7, 3D7
T4 sequence (O96935 whole entry): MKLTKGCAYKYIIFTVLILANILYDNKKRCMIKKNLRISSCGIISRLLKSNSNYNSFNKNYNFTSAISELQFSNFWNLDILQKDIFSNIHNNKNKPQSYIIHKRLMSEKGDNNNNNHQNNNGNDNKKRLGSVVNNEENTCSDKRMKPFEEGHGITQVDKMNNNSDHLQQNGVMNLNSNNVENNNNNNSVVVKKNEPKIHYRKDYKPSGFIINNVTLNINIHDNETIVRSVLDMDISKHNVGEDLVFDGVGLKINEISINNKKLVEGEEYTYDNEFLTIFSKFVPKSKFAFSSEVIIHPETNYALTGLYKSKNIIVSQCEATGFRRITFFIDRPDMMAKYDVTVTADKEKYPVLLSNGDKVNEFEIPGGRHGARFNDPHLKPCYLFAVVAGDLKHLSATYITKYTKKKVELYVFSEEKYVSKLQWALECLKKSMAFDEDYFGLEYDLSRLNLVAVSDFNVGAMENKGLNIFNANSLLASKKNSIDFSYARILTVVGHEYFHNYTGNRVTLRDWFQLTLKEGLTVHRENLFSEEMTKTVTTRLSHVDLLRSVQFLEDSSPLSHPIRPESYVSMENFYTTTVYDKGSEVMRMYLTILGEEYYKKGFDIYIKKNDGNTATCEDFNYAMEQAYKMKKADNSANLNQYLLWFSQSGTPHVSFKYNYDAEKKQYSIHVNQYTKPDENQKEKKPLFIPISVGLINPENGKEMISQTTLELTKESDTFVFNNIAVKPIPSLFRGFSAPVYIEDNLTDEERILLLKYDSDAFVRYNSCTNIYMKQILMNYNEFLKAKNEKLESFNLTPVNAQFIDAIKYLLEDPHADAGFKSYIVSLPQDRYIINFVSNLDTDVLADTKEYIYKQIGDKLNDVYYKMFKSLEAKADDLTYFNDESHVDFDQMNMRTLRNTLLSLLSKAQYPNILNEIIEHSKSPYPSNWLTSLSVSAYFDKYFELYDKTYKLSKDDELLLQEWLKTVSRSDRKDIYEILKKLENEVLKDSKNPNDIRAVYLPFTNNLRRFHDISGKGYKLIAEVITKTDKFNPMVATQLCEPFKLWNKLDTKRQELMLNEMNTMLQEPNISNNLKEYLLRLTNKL

[18] = target: T5, High affinity choline transporter 1 (Homo sapiens, UniProt Q9GZV3); test: human choline transporter blockers, potency – cell-based, 5-point CRC, membrane potential dye, dose response (AID 504840); format: functional
T5 sequence (Q9GZV3 whole entry): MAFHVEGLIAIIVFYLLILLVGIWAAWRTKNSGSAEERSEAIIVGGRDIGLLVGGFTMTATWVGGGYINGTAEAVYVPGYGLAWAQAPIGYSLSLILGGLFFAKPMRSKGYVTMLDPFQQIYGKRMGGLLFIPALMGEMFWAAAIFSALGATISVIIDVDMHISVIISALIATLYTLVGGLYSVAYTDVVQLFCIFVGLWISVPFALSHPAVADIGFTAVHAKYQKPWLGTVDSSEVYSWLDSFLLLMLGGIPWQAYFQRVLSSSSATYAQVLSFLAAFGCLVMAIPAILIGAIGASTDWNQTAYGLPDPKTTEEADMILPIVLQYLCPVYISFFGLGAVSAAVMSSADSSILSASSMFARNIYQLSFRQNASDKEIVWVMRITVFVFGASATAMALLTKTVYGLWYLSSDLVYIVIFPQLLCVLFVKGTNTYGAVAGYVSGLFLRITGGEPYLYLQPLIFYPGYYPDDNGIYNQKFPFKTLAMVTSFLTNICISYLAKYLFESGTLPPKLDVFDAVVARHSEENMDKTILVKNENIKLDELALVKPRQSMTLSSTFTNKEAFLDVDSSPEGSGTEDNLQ

[19] = target: T6, Corticotropin-releasing factor receptor 2/Corticotropin-releasing factor-binding protein (Homo sapiens, UniProt P24387+Q13324); test: Dose Response confirmation of uHTS hits for small molecule antagonists of the CRF-binding protein and CRF-R2 receptor complex.; format: functional; conditions: read-out: IC50_Mean
T6 sequence (Q13324 whole entry): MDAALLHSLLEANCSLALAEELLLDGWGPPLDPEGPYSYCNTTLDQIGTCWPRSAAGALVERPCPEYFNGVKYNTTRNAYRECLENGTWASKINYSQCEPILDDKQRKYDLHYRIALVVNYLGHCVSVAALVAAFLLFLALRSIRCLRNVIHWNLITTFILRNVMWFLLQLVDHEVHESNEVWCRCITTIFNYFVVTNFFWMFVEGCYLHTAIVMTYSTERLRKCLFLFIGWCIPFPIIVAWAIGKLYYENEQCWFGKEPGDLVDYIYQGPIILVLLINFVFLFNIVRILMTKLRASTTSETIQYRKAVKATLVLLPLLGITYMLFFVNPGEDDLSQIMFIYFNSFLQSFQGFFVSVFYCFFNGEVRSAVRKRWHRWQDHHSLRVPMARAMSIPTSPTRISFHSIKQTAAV
T6 sequence (P24387 whole entry): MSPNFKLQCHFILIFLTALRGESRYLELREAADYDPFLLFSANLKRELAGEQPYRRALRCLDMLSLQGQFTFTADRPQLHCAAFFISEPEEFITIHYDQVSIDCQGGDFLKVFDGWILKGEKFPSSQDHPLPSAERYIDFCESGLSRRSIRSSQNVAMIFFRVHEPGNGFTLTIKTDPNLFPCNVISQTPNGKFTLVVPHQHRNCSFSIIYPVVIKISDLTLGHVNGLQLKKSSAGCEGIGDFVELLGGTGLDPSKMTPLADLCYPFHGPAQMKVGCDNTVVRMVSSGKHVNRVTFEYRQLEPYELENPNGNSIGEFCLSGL

[20] = target: T6, Corticotropin-releasing factor receptor 2/Corticotropin-releasing factor-binding protein; test: activators of CRF receptor 2 with binding protein – uHTS hits, confirmation (AID 602473); format: functional; conditions: read-out: EC50_Mean
[21] = blockers of CRF-binding protein–CRF-R2 complex – cell-based, uHTS hits, 384-well, dose response (AID 651639); format: functional, Homo sapiens; conditions: read-out: IC50_Mean

SMILES: O=S(=O)(c1ccc2c(c1)OCCO2)N1CCN(c2ncnc3sccc23)CC1
- EC50 (BJ [1]): > 150 µM (not active)
- EC50 (BJ [2]): > 150 µM (not active)
- EC50 (BJ [3]): > 150 µM (not active)
- EC50 [4]: > 150 µM (not active)
- IC50 [5]: > 80 µM (inactive)
- AC50 (INS1): 3.37 µM (active)
- AC50 [6]: 1.45 µM (active)
- AC50 [7]: 3.21 µM (active)
- AC50 [8]: 29.6 µM (active)
- IC50 (Galanin receptor type 3): 2.06 µM (active)
- EC50 (cells [9]): > 29.9 µM (inactive)

- AC50 [10]: 95 µM (active)
SMILES: CCN1CCN(C(S)=Nc2ccc3nc(N4CCN(CC)CC4)cc(C)c3c2)CC1

SMILES: Cc1nn(Cc2cccc(F)c2)c(C)c1NC(=O)c1ccc(COc2ccccc2Cl)cc1
- EC50 [11]: 1.26 µM (active)
- EC50 [12]: 40.4 µM (active)
- IC50 [13]: 2.85 µM (active)

SMILES: O=C(O)c1cccc(NC(=O)c2cn(-c3ccccc3)nc2-c2cc3ccccc3o2)c1
- CC50 [14]: 33 µM (active)
- IC50 [15]: 43 µM (inactive)
- IC50 [16]: 18 µM (active)
- IC50 (cells [17]): 20.9 µM (active)

- IC50 (Aminopeptidase N): 69.4 µM (active)
- IC50 [18]: 12.6 µM (active)
- IC50 [19]: 5.71 µM (active)
- EC50 [20]: 7.48 µM (active)
- IC50 [21]: > 20 µM (inactive)
SMILES: O=C(Nc1cc(S(=O)(=O)N2CCCCC2)ccc1O)c1ccccc1NS(=O)(=O)c1ccc(F)c(F)c1

Reference: ChEMBL document CHEMBL1201862, “PubChem BioAssay data set” (2004)
